According to patent US10947242B2, “[1,2,4]triazolo[1,5and#8208;A]pyrimidine compounds as PDE2 inhibitors” (Janssen Pharmaceutica NV, priority 2016, dated 2021):
Read-outs that look alike come from different tables or passages of the source.

Tests used:
[1] = target: T1, Human recombinant PDE2A (hPDE2A) (Homo sapiens, UniProt O00408); experiment: In vitro assay PDE2A (SPA, 3H-cGMP hydrolysis); format: biochemical; details: for IC50: read-out: hPDE2A pIC50 (converted); for Emax: read-out: hPDE2A Emax
T1 construct: His tag (inferred from metal chelate purification); made in house; host or cells: Sf9 insect cells (baculovirus)
T1 sequence (O00408 whole entry): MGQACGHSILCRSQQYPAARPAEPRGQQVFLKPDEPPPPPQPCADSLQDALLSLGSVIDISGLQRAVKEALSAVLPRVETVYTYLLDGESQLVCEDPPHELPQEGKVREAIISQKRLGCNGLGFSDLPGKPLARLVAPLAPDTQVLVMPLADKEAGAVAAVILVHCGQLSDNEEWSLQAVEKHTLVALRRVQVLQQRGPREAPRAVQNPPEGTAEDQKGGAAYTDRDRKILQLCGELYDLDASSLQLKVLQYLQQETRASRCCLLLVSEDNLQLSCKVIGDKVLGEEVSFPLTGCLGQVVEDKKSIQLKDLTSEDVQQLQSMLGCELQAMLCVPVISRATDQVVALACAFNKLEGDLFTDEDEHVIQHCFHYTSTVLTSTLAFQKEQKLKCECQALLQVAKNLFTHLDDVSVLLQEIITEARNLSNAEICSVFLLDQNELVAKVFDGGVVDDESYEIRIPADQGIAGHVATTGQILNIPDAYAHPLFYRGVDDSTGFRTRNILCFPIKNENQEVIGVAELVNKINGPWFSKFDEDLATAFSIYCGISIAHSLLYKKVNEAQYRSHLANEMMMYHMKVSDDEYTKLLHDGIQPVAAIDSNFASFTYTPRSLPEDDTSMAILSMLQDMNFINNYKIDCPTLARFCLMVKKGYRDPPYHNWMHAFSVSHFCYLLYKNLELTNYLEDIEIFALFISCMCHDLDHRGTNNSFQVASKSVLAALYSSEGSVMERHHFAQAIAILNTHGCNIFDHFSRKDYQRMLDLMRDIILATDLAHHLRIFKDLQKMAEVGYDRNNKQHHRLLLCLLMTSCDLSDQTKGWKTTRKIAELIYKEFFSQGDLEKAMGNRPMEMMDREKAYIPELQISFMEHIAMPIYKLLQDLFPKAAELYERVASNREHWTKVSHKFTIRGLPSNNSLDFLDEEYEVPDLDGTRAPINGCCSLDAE

PDE2A = target: T2, PDE2A (Rattus norvegicus, UniProt Q01062); experiment: PDE2 occupancy by test compounds, ex-vivo autoradiography with [3H]B-17a; format: in vivo, Male Wistar rats; details: sc, 10 mg/kg, route SC (subcutaneous), percentage receptor occupancy, ex-vivo autoradiography, striatum
T2 construct: Twenty μm-thick striatal sections were cut; from tissue; host or cells: rat brain, striatal sections
T2 sequence (Q01062 1-928): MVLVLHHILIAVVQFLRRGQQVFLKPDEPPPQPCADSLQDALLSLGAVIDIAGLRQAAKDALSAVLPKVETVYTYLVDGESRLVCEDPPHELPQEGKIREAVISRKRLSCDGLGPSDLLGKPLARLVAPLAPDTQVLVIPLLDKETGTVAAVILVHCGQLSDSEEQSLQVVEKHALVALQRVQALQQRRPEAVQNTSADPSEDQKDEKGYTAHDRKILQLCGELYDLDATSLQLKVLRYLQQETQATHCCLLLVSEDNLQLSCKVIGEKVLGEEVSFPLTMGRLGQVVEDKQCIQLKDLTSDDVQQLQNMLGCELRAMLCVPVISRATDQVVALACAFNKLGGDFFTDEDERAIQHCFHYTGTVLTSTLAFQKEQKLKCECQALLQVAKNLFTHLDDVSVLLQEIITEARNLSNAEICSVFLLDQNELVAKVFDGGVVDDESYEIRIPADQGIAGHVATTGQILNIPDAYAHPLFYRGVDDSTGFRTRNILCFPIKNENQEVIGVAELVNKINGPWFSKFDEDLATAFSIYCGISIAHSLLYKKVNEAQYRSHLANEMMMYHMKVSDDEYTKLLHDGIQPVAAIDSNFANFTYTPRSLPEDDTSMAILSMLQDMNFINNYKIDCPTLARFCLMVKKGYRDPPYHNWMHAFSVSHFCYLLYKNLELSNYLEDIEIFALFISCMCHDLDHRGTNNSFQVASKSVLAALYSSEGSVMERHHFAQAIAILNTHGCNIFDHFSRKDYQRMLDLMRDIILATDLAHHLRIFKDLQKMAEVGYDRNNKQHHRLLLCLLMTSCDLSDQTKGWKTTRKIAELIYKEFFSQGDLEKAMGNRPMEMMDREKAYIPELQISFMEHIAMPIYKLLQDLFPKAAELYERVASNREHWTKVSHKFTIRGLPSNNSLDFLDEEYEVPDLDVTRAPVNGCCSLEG

## C[C@@H]1CCN(C(=O)c2ccc3c(ccn3CCF)c2)C[C@H]1c1cc(C(F)F)nc2ncnn12 [Compound 89]
[1]; human recombinant PDE2A, 10 μM cGMP substrate
  IC50: 0.229 nM
[1]; human recombinant PDE2A
  Emax: 104%
[1]
  Emax: 104%
  IC50: 0.229 nM
PDE2A
  receptor occupancy at 10 mg/kg: 88%
